Reference: PubChem BioAssay AID1845208 (Molecular Pharmacology Branch, DTP, NCI, 2023)

Tested on: NCI-H196 SCLC complex tumor spheroid viability
Experiment: Anticancer human tumor NCI-H196 cell line growth inhibition;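 further: spheroids exposed to compounds for 7 days before readout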;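 on viability, T/C: 100% = DMSO vehicle control wells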
Settings: for IC50: curve of first compound; for viability, T/C: stronger effect = lower value
Summary of the method: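 Complex spheroids of malignant cells with endothelial cells and mesenchymal stem cells; agents alone or combined, from near clinical Cmax (or 10 microM if unknown) down in half-log steps, 0.25% DMSO final.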

[1] = second compound 1 µM, first compound 0.00949 µM
[2] = second compound 1 µM, first compound 0.03 µM
[3] = second compound 1 µM, first compound 0.0949 µM
[4] = second compound 1 µM, first compound 0.3 µM
[5] = second compound 1 µM, first compound 0.949 µM
[6] = second compound 1 µM, first compound 3 µM
[7] = second compound 3.16 µM, first compound 0.00949 µM
[8] = second compound 3.16 µM, first compound 0.03 µM
[9] = second compound 3.16 µM, first compound 0.0949 µM
[10] = second compound 3.16 µM, first compound 0.3 µM
[11] = second compound 3.16 µM, first compound 0.949 µM
[12] = second compound 3.16 µM, first compound 3 µM
[13] = second compound 10 µM, first compound 0.00949 µM
[14] = second compound 10 µM, first compound 0.03 µM
[15] = second compound 10 µM, first compound 0.0949 µM
[16] = second compound 10 µM, first compound 0.3 µM
[17] = second compound 10 µM, first compound 0.949 µM
[18] = second compound 10 µM, first compound 3 µM
[19] = second compound 31.6 µM, first compound 0.00949 µM
[20] = second compound 31.6 µM, first compound 0.03 µM
[21] = second compound 31.6 µM, first compound 0.0949 µM
[22] = second compound 31.6 µM, first compound 0.3 µM
[23] = second compound 31.6 µM, first compound 0.949 µM
[24] = second compound 31.6 µM, first compound 3 µM
[25] = second compound 100 µM, first compound 0.00949 µM
[26] = second compound 100 µM, first compound 0.03 µM
[27] = second compound 100 µM, first compound 0.0949 µM
[28] = second compound 100 µM, first compound 0.3 µM
[29] = second compound 100 µM, first compound 0.949 µM
[30] = second compound 100 µM, first compound 3 µM

SMILES	IC50 (second compound 1 µM) [nM]	IC50 (second compound 3.16 µM) [nM]	IC50 (second compound 10 µM) [nM]	IC50 (second compound 31.6 µM) [nM]	IC50 (second compound 100 µM) [nM]	viability, T/C [1] [%]	viability, T/C [2] [%]	viability, T/C [3] [%]	viability, T/C [4] [%]	viability, T/C [5] [%]	viability, T/C [6] [%]	viability, T/C [7] [%]	viability, T/C [8] [%]	viability, T/C [9] [%]	viability, T/C [10] [%]	viability, T/C [11] [%]	viability, T/C [12] [%]	viability, T/C [13] [%]	viability, T/C [14] [%]	viability, T/C [15] [%]	also measured
CNCc1ccc(-c2cc(-c3nc(-c4ccc(S(=O)(=O)C(C)C)cc4)cnc3N)on2)cc1 + Cn1nnc2c(C(N)=O)ncn2c1=O	> 3000	> 3000	> 3000	> 3000	> 3000	100	92.1	106	99.5	84.1	85.2	98.7	97.4	104	105	88.1	88.2	100	96.3	105	viability, T/C [16]: 99.5%; viability, T/C [17]: 95.3%; viability, T/C [18]: 84.4%; viability, T/C [19]: 102%; viability, T/C [20]: 113%; viability, T/C [21]: 106%; viability, T/C [22]: 105%; viability, T/C [23]: 91.4%; viability, T/C [24]: 82.9%; viability, T/C [25]: 107%; viability, T/C [26]: 109%; viability, T/C [27]: 112%; viability, T/C [28]: 99.6%; viability, T/C [29]: 88.3%; viability, T/C [30]: 84.3%
Cc1sc2c(c1C)C(c1ccc(Cl)cc1)=NC(CC(=O)Nc1ccc(O)cc1)c1nnc(C)n1-2 (stereo not given) + Cn1nnc2c(C(N)=O)ncn2c1=O	589	669	716	1340	2450	102	99.5	86.6	68.1	37.3	21.1	103	97.4	98.8	75.5	39	23.3	105	102	91.6	viability, T/C [16]: 69.1%; viability, T/C [17]: 44%; viability, T/C [18]: 27.6%; viability, T/C [19]: 108%; viability, T/C [20]: 106%; viability, T/C [21]: 93.7%; viability, T/C [22]: 87.1%; viability, T/C [23]: 54.5%; viability, T/C [24]: 34.9%; viability, T/C [25]: 115%; viability, T/C [26]: 105%; viability, T/C [27]: 103%; viability, T/C [28]: 85%; viability, T/C [29]: 67%; viability, T/C [30]: 46.4%
